# From the supplement of paper PMC13380429
# What was measured:
# Settings in all cases: 72 h
# Calu-3 [1] = experiment: cell viability relative to DMSO; higher = less toxic
# U2OS [2] = experiment: as above
# Caco-2 [3] = experiment: as above
# Vero E6 [4] = experiment: as above
# HepG2 [5] = experiment: as above
# Calu-3 [6] = experiment: relative viability EC50 (midpoint between 100% and the lowest measured viability); higher = less toxic
# U2OS [7] = experiment: as above
# Caco-2 [8] = experiment: as above
# Vero E6 [9] = experiment: as above
# HepG2 [10] = experiment: as above
# Calu-3 [11] = experiment: drug sensitivity score (DSS) for viability; higher = more toxic; extreme values may be limits of the assay
# U2OS [12] = experiment: as above
# Caco-2 [13] = experiment: as above
# Vero E6 [14] = experiment: as above
# HepG2 [15] = experiment: as above
Structure (SMILES),cell viability (Calu-3 [1]; 1 nM),cell viability (Calu-3 [1]; 10 nM),cell viability (Calu-3 [1]; 100 nM),cell viability (Calu-3 [1]; 1000 nM),cell viability (Calu-3 [1]; 10000 nM),cell viability (U2OS [2]; 1 nM),cell viability (U2OS [2]; 10 nM),cell viability (U2OS [2]; 100 nM),cell viability (U2OS [2]; 1000 nM),cell viability (U2OS [2]; 10000 nM),cell viability (Caco-2 [3]; 1 nM),cell viability (Caco-2 [3]; 10 nM),cell viability (Caco-2 [3]; 100 nM),cell viability (Caco-2 [3]; 1000 nM),cell viability (Caco-2 [3]; 10000 nM),cell viability (Vero E6 [4]; 1 nM),cell viability (Vero E6 [4]; 10 nM),cell viability (Vero E6 [4]; 100 nM),cell viability (Vero E6 [4]; 1000 nM),cell viability (Vero E6 [4]; 10000 nM),cell viability (HepG2 [5]; 1 nM),cell viability (HepG2 [5]; 10 nM),cell viability (HepG2 [5]; 100 nM),cell viability (HepG2 [5]; 1000 nM),cell viability (HepG2 [5]; 10000 nM),relative viability EC50 (Calu-3 [6]),relative viability EC50 (U2OS [7]),relative viability EC50 (Caco-2 [8]),relative viability EC50 (Vero E6 [9]),relative viability EC50 (HepG2 [10]),drug sensitivity score (Calu-3 [11]),drug sensitivity score (U2OS [12]),drug sensitivity score (Caco-2 [13]),drug sensitivity score (Vero E6 [14]),drug sensitivity score (HepG2 [15])
O=C(O)CCc1cc(I)c(Oc2ccc(O)cc2)c(I)c1 [diiodothyropropionic-acid],96.8%,101%,94.5%,99.6%,93.6%,96.2%,99.1%,95.8%,98.4%,96.6%,113%,124%,94.4%,113%,109%,105%,103%,104%,87.1%,92.1%,104%,95%,113%,103%,99.8%,> 10 µM,> 10 µM,> 10 µM,> 10 µM,> 10 µM,0,0,0,0.7,0
CCCCC[C@H](O)/C=C/[C@H]1[C@H](O)CC(=O)[C@@H]1C/C=C\CCCC(=O)O [dinoprostone],96.3%,90%,90.2%,94%,94.8%,101%,98.2%,102%,98.5%,98.3%,101%,104%,101%,102%,95.2%,101%,107%,101%,103%,94.9%,99.8%,104%,90.4%,103%,99%,> 10 µM,> 10 µM,> 10 µM,> 10 µM,> 10 µM,0,0,0,0,0
C[C@H](N)C(=O)N[C@@H](CCC(N)=O)C(=O)O [dipeptamin],101%,98.9%,94.7%,95.1%,103%,95.9%,106%,98.6%,103%,98.9%,97.4%,104%,96.5%,95.2%,110%,99.5%,98.1%,94.1%,98%,95.4%,104%,93.2%,95.5%,100%,96.1%,> 10 µM,> 10 µM,> 10 µM,> 10 µM,> 10 µM,0,0,0,0,0
CC(C)N(CCC(C(N)=O)(c1ccccc1)c1ccccn1)C(C)C (stereo not given) [disopyramide],101%,93.2%,96.3%,96.9%,89.7%,103%,102%,100%,99.7%,95.7%,94.4%,104%,101%,102%,91.8%,102%,101%,96%,97.7%,97.5%,105%,86.8%,94.7%,91.9%,99.4%,> 10 µM,> 10 µM,> 10 µM,> 10 µM,> 10 µM,0,0,0,0,0
CCc1ccc(C(=O)C(C)CN2CCCCC2)cc1 (stereo not given) [eperisone],103%,93.7%,87.5%,101%,88.8%,93.6%,102%,96.2%,99.9%,94.9%,98.6%,106%,91.7%,102%,98.5%,105%,99.7%,106%,103%,105%,107%,95.5%,95.8%,95.4%,100%,> 10 µM,> 10 µM,> 10 µM,> 10 µM,> 10 µM,0,0,0,0,0
NC1=NCC2c3ccccc3Cc3ccccc3N12 (stereo not given) [epinastine],99.3%,103%,98.2%,98%,92%,97%,102%,91.7%,92.8%,98.6%,91.6%,87.4%,95%,98.9%,93.3%,98.6%,105%,99.7%,96%,99.5%,97.3%,102%,105%,99.1%,102%,> 10 µM,> 10 µM,> 10 µM,> 10 µM,> 10 µM,0,0,0,0,0
C[C@]12CC[C@@H]3c4ccc(O)cc4CC[C@H]3[C@@H]1C[C@@H](O)[C@@H]2O [estriol],94.5%,96.5%,95.6%,93.7%,103%,99.3%,97.4%,101%,101%,102%,97.5%,96.3%,101%,105%,105%,96%,99.1%,96.5%,89.2%,105%,106%,103%,96.8%,90.4%,96.1%,> 10 µM,> 10 µM,> 10 µM,> 10 µM,> 10 µM,0,0,0,0,0
